Measured values from patent US20110071169A1, “Preparation of polymorphic form of lapatinib ditosylate” (MAI DE LTD, priority 2009, published 2011).

Assays:
[1] = Thermal phase stability on heating; assay type: physicochemical; details: heating of the crystalline form
[2] = Solubility in solvent mixtures; assay type: physicochemical
Procedure: The use of a relatively concentrated solution, e.g. about 5 mg/mL or above 5 mg/mL therefore is preferred.
In a preferred aspect, Form A of lapatinib ditosylate may be prepared by slurring starting material, crude or pure lapatinib ditosylate, anhydrate or solvate, which can be obtained according to the procedures described in U.S. Pat. No. 7,157,466 (or WO02/02552) with an organic solvent or a mixture of two or more organic solvents under heat. The lapatinib ditosylate is soluble in a mixture of water and THF, but not soluble in non-polar organic solvents. The preferred organic solvent is tetrahydrofuran. The concentration of lapatinib ditosylate within the solution may range from about 0.1% by weight to the saturation point. This concentration will, of course, vary depending upon the temperature at which the co-solvent solution is held, with warmer temperatures generally allowing for the preparation of more concentrated solutions of lapatinib ditosylate. Preferably, the concentration (w/w %) of lapatinib ditosylate starting material in solution is about 0.5-15%, preferably about 1-10%, more preferably about 1.5-5%. The volume ratio of tetrahydrofuran to water is about 50-95:50-5, preferably about 70-95:30-5, more preferably about 80-95:20-5, most preferably about 85:15. Water is then added into the above suspension, and the mixture is heated, suitably to a temperature in the range of from about 45° C. to 85° C., such as about 50° C. to 75° C., for example about 65-70° C. until all solid materials are dissolved. The clear and hot solution is allowed to cool down to ambient temperature, and the cooled solution is kept at ambient temperature for crystallization. The crystal Form A of lapatinib ditosylate is formed over a period of 1 hour to 4 days, and the crystal Form A is recovered from the solvent by filtration. The obtained crystal From A can be dried under a vacuum oven at about 20° C.-60° C., preferably at about 25° C.-50° C., more preferably at about 25° C.-35° C., and most preferably at […] for about 10-40 hours to remove the solvent residues.
In a preferred aspect, Form B of lapatinib ditosylate may be prepared by slurring starting material, crude or pure lapatinib ditosylate, anhydrate or solvate, which can be obtained according to the procedures described in U.S. Pat. No. 7,157,466 (or WO02/02552) with an organic solvent or a mixture of two or more organic solvents under heat. The lapatinib ditosylate is soluble in a mixture of water and THF, but not soluble in non-polar solvent. The preferred organic solvent is tetrahydrofuran. The concentration of lapatinib ditosylate within the solution may range from about 0.1% by weight to the saturation point. […]

[3] = Stability study of bulk material (stability-indicating HPLC, polymorphic form); details: elevated temperature and humidity (40° C./75%)
Procedure: The stability of Form A or Form B of lapatinib ditosylate bulk material and tablets is assessed by storing samples for up to 12 weeks at 25° C./60% RH or up to 5 weeks at 40° C./75% RH. Changes are monitored using a stability-indicating HPLC method. Results were calculated by normalized peak area (npa). Degradants are identified by comparison of their relative retention times against impurity standards.

heating temperature up to which no phase transformation occurs [1] | solubility (in words) ([2]; mixture of water and THF) | solubility (in words) ([2]; mixture of water and methanol or ethanol) | concentration of complete dissolution ([2]; mixture of water and methanol or ethanol, room temperature) [µg/mL] | solubility (in words) ([2]; non-polar organic solvents) | time for which polymorph (phase) and chemical stability was demonstrated [3] | Structure (SMILES)
up to 45 °C |  |  |  |  |  | CS(=O)(=O)CCNCc1ccc(-c2ccc3ncnc(Nc4ccc(OCc5cccc(F)c5)c(Cl)c4)c3c2)o1.Cc1ccc(S(=O)(=O)O)cc1.Cc1ccc(S(=O)(=O)O)cc1 [Form B, ditosylate salt of N-[3-chloro-4-[(3-fluorophenyl)methoxy]phenyl]-6-[5-[[[2-(methylsulfonyl)ethyl]amino]methyl]-2-furanyl]-4-Quinazolinamine]
 | soluble | moderately soluble | ≥ 5000 | not soluble |  | CS(=O)(=O)CCNCc1ccc(-c2ccc3ncnc(Nc4ccc(OCc5cccc(F)c5)c(Cl)c4)c3c2)o1.Cc1ccc(S(=O)(=O)O)cc1 [lapatinib ditosylate, N-[3-chloro-4-[(3-fluorophenyl)methoxy]phenyl]-6-[5-[[[2-(methylsulfonyl)ethyl]amino]methyl]-2-furanyl]-4-Quinazolinamine, bis(4-methylbenzenesulfonate)]
up to 40 °C |  |  |  |  | over 5 weeks | CS(=O)(=O)CCNCc1ccc(-c2ccc3ncnc(Nc4ccc(OCc5cccc(F)c5)c(Cl)c4)c3c2)o1.Cc1ccc(S(=O)(=O)O)cc1 [Form A, hydrate ditosylate salt of N-[3-chloro-4-[(3-fluorophenyl)methoxy]phenyl]-6-[5-[[[2-(methylsulfonyl)ethyl]amino]methyl]-2-furanyl]-4-Quinazolinamine]
